Key:
p21 = test: Western blotting of p21 in TIG-1; format: cell-based, human; conditions: normal cells (TIG-1), 48 hours, vs control, FIG. 10A
Source text: (§1) In order to investigate the cytotoxicity action mechanism of triethylene glycol, human osteosarcoma cells (U2OS) and normal human fibroblasts (TIG-1) were each treated with […] or triethylene glycol (TEG), and the expression of cancer-inhibiting proteins p53 and pRB was examined by SDS-PAGE and Western blotting. […] Numbers 1-5 in the bar charts of the expression level in the lower half of FIG. 10A correspond to numbers 1-5 of the lanes in the photo images in the upper half of FIG. 10A.

CDK-4 = test: Western blotting of CDK-4 in TIG-1; format: cell-based, human; conditions: normal cells (TIG-1), FIG. 10B
Description: (§2) In order to investigate the cytotoxicity action mechanism of triethylene glycol, human osteosarcoma cells (U2OS) and normal human fibroblasts (TIG-1) were each treated with AshLe-WEX or triethylene glycol (TEG), and the expression of cancer-inhibiting proteins p53 and pRB was examined by SDS-PAGE and Western blotting. Treatment with AshLe-WEX or triethylene glycol (TEG) was conducted by adding AshLe-WEX (final concentration: 0.5%) or triethylene glycol (final concentration: 0.5%, 1.0%, or 2.0%) to a medium for culturing cells and culturing for 48 hours. […] Numbers 1-5 in the bar charts of the expression level in the lower half of FIG. 10A correspond to numbers 1-5 of the lanes in the photo images in the upper half of FIG. 10A. […] It was found based on the proportion of phosphorylated-p53/p53 that phosphorylation rate increased in cells treated with AshLe-WEX or triethylene glycol by 30% to 40%, as compared with the control group. […] The proportion of phosphorylated-pRB/RB decreased from about 0.5 in control cells to about 0.3 in cells treated with triethylene glycol ([…]) while it increased by about 20% in normal cells in contrast.
(§3) In parallel with the above, the expression levels of cyclin-B1, -D1, and -E1 and CDK-2, -4, and -6 were examined. […] On the other hand, the tendency regarding the expression levels for cyclin-D1 was the opposite of that for cyclin-B1. […]

pRB [1] = test: Immunohistochemistry of pRB phosphorylation in TIG-1; format: cell-based, human; conditions: normal cells (TIG-1), 0.5%, 48 hours, FIG. 11
Description: (§4) Immunohistochemistry was conducted for visualizing the degree of phosphorylation of p53 and pRB in human osteosarcoma cells (U2OS) and normal human fibroblasts (TIG-1) treated with […] or triethylene glycol. Treatment with […] or triethylene glycol was conducted by adding […] or triethylene glycol to a medium such that a final concentration becomes 0.5% and culturing the cells in each medium for 48 hours. The cells were stained with an anti-p53 antibody (DO-1) and an anti-pRB antibody ([…]). Immunostaining was visualized using an Alexa-488- or Alexa-594-labeled secondary antibody. Regarding pRB, which is a downstream effector of a cyclin-CDK complex, the degree of phosphorylation decreased in cancer cells treated with […] or triethylene glycol but increased in normal cells treated with […] or triethylene glycol (FIG. 11).

cyclin-E1 [2] = test: Western blotting of cyclin-E1 in TIG-1; format: cell-based, human; conditions: normal cells (TIG-1), FIG. 10B
Description: as §2, §3

pRB [3] = test: Western blotting of pRB in TIG-1; format: cell-based, human; conditions: normal cells (TIG-1), vs control
Source text: as §1

[4] = tested on: normal human fibroblasts (TIG-1); test: Cytotoxicity assay using MTT, TIG-1; format: cell-based; conditions: TIG-1, FIG. 5
Description: (§5) Human osteosarcoma cells (U2OS) were cultured in a humidified incubator (37° C., 5% CO2) using a medium in which Dulbecco's modified Eagle's medium (DMEM, Invitrogen) is added with 10% bovine fetal serum. The cells were cultured to become 40% to 60% confluent and treated with AshLe-WEX (final concentration: 1%; 200 μg/mL) and the 1st and 2nd fractions thereof (AshLe-WEX-F1 and F2), respectively. The cells were treated over about 48 hours during culture at 37° C.
(§6) AshLe-WEX and the fractions thereof were evaluated in terms of cytotoxicity by assay using MTT. After the above treatment, MTT (0.5 mg/mL) was added to each cell culture medium, followed by incubation for 4 hours. Next, the medium containing MTT was removed and 100 μL of DMSO was added to each well to completely dissolve formazan crystals. Absorbance was detected at 550 nm using a spectrophotometer (Wallac ARVO SX).
(§7) Cytotoxicity of triethylene glycol to human osteosarcoma cells (U2OS) and normal human fibroblasts (TIG-1) was tested in the manner described in item 5 above. […] Further, cell cycle analysis was conducted using human osteosarcoma cells (U2OS).

p53 [5] = test: Western blotting of p53 in U2OS; format: cell-based, human
Source text: as §1

[6] = tested on: glioblastoma cells (C6 Glioma cells); test: Differentiation induction assay of glioblastoma cells; format: cell-based; conditions: 0.6%, 48 hours
Description: Differentiation induction of glioblastoma cells and neuroblastoma cells by triethylene glycol was examined. Differentiation of glioblastoma cells was induced by treating the cells with 100 μmol of hydrogen peroxide for 2 to 3 hours and then culturing the cells in a medium containing […] or triethylene glycol (final concentration: 0.6%) for 48 hours. Cells of a control group were treated with hydrogen peroxide in the above manner and then cultured in a medium containing neither […] nor triethylene glycol.

MMP-9 = test: Expression level of MMP-9; format: cell-based, human; conditions: A549, 48 hours, AshLe-WEX 0.5% or TEG 0.5%, 1.0% or 2.0%, FIG. 14
Source text: (§8) In order to examine the antimetastatic activity mechanism of […] and triethylene glycol, the expression levels of matrix metalloproteases (MMP-9, MMP-3, and MMP-2) were examined. Human lung cancer cells (A549) were used for examination. […] This effect was not observed for MMP-2.

[7] = tested on: human osteosarcoma cells (U2OS); test: Cell cycle analysis; format: cell-based; conditions: FIG. 6
Description: as §7

pRB [8] = test: Western blotting of pRB in U2OS; format: cell-based, human
Source text: as §1

MMP-2 = test: Expression level of MMP-2; format: cell-based, human; conditions: A549, 48 hours, AshLe-WEX 0.5% or TEG 0.5%, 1.0% or 2.0%, FIG. 14
Source text: as §8

cyclin-D1 [9] = test: Western blotting of cyclin-D1 in U2OS; format: cell-based, human; conditions: cancer cells (U2OS), FIG. 10B
Description: as §2, §3

[10] = tested on: HT1080 cells (human fibrosarcoma cells); test: In vivo tumor metastasis assay, HT1080 tail vein injection; parameters: species or system Balb/c nude mice
Description: In vivo antitumor assay of […] and triethylene glycol was conducted using subcutaneous xenograft and tail vein metastasis model mice produced with the use of HT1080 cells from an invasive tumor with high lung metastasis (human fibrosarcoma cells, obtained from the JCRB Cell Bank). […] This administration treatment was started on day 8 after injection of HT1080 cells and repeated 12 times in total at intervals of two days. […] This assay was repeated twice using three mice for each group.

HT1080 cells = test: In vitro Matrigel invasion assay; format: cell-based, human; conditions: FIG. 9
cyclin-B1 [11] = test: Western blotting of cyclin-B1 in TIG-1; format: cell-based, human; conditions: normal cells (TIG-1), vs control, FIG. 10B
Source text: as §1, with “10A. […] In parallel with the above, the expression levels of cyclin-B1, -D1, and -E1 and CDK-2, -4, and -6 were examined. […] On the other hand, the tendency regarding the expression levels for cyclin-D1 was the opposite of that for cyclin-B1. In the case of treatment with triethylene glycol, the expression level of cyclin-D1 increased in cancer cells but decreased in normal cells. The expression level of cyclin-E1 increased in both cancer cells and normal cells. The expression level of CDK-4 decreased in normal cells.” for “10A.”

[12] = tested on: human osteosarcoma cells (U2OS); test: Cytotoxicity assay using MTT, U2OS; format: cell-based; conditions: FIG. 5
Description: as §5, §6, §7

pRB [13] = test: Immunohistochemistry of pRB phosphorylation in U2OS; format: cell-based, human; conditions: cancer cells (U2OS), 0.5%, 48 hours, FIG. 11
Description: as §4

cyclin-D1 [14] = test: Western blotting of cyclin-D1 in TIG-1; format: cell-based, human; conditions: normal cells (TIG-1), FIG. 10B
Description: as §2, §3

cyclin-E1 [15] = test: Western blotting of cyclin-E1 in U2OS; format: cell-based, human; conditions: cancer cells (U2OS), FIG. 10B
Description: as §2, §3

[16] = tested on: IMR32 neuroblastoma cells; test: Differentiation induction assay of neuroblastoma cells; format: cell-based; conditions: 0.5%, FIG. 16
Description: Next, effects on IMR32 neuroblastoma cells treated with […] or triethylene glycol were examined. Differentiation of neuroblastoma cells was induced by treating the neuroblastoma cells with 100 μmol of hydrogen peroxide for 2 to 3 hours and then culturing the cells in a medium containing […] or triethylene glycol (final concentration: 0.5%). As control groups, a group of cells that had been treated with hydrogen peroxide in the above manner and then cultured in a medium containing neither […] nor triethylene glycol and a group of cells that no hydrogen peroxide treatment was conducted and cultured in a medium containing neither […] nor triethylene glycol without hydrogen peroxide treatment were prepared.

p53 [17] = test: Western blotting of p53 in TIG-1; format: cell-based, human; conditions: normal cells (TIG-1)
Source text: as §1

cyclin-B1 [18] = test: Western blotting of cyclin-B1 in U2OS; format: cell-based, human; conditions: cancer cells (U2OS), FIG. 10B
Source text: as §1, with “10A. […] In parallel with the above, the expression levels of cyclin-B1, -D1, and -E1 and CDK-2, -4, and -6 were examined. […] On the other hand, the tendency regarding the expression levels for cyclin-D1 was the opposite of that for cyclin-B1. In the case of treatment with triethylene glycol, the expression level of cyclin-D1 increased in cancer cells but decreased in normal cells. The expression level of cyclin-E1 increased in both cancer cells and normal cells. The expression level of CDK-4 decreased in normal cells.” for “10A.”

[19] = tested on: HT1080 cells (human fibrosarcoma cells); test: In vivo antitumor assay, HT1080 subcutaneous xenograft; parameters: species or system Balb/c nude mice; conditions: oral administration, 250 μL of 5% triethylene glycol with 2% carboxymethyl cellulose, 12 times at intervals of two days, FIG. 7
Description: In vivo antitumor assay of AshLe-WEX and triethylene glycol was conducted using subcutaneous xenograft and tail vein metastasis model mice produced with the use of HT1080 cells from an invasive tumor with high lung metastasis (human fibrosarcoma cells, obtained from the JCRB Cell Bank).
HT1080 cells (6×10^6 cells in 0.2 mL of growth medium) were subcutaneously injected into Balb/c nude mice (4-week-old female mice purchased from CLEA Japan, Inc.) at two sites per mouse, and an equivalent amount of the same was injected into the tail vein of each mouse. 2% carboxymethyl cellulose was administered with feed to a control group. A mixture containing AshLe-WEX (100-250 mg/kg body weight/administration) and 2% carboxymethyl cellulose was administered with feed to an AshLe-WEX group. A TEG group was given a 5% triethylene glycol aqueous solution via oral administration (at a dose per administration of 250 μL of a preparation of 5% triethylene glycol mixed with 2% carboxymethyl cellulose) or intraperitoneal injection (at a dose per administration of 100 μL of 5% triethylene glycol). […] For metastasis assay, each mouse was euthanized by cervical dislocation 5 weeks after tail vein injection, the lung was fixed with 4% formaldehyde, and the number of tumor colonies was counted. […]

Keap1 = test: Western blotting of Keap1 expression; format: cell-based; conditions: human lung cancer cells (A549), FIG. 13
MMP-3 = test: Expression level of MMP-3; format: cell-based, human; conditions: A549, 48 hours, AshLe-WEX 0.5% or TEG 0.5%, 1.0% or 2.0%, FIG. 14
Source text: as §8

[20] = cancer cells (U2OS), vs control

## OCCOCCOCCO [triethylene glycol]
p21
  expression level of p21: increased
CDK-4
  expression level of CDK-4: decreased
pRB [1]
  degree of phosphorylation of pRB (immunohistochemistry): increased
cyclin-E1 [2]
  expression level of cyclin-E1: increased
pRB [3]
  increase of proportion of phosphorylated-pRB/RB: about 20%
  phosphorylated-pRB: increased
[4]
  toxicity to normal human fibroblasts: substantially no toxicity
p53 [5]; U2OS, 48 hours, AshLe-WEX 0.5% or TEG 0.5%, 1.0% or 2.0%, vs control, FIG. 10A
  expression level of p53: increased
p53 [5]; cancer cells (U2OS), anti-phosphoserine-specific antibody
  phosphorylated-p53 protein: increased
[6]; after 100 μmol hydrogen peroxide 2 to 3 hours, FIG. 15A
  cell form (differentiation induction): astrocyte-like form
[6]; after hydrogen peroxide, FIG. 15B
  induction of GFAP (glial cell differentiation marker protein): upregulated
MMP-9
  expression level of MMP-9: remarkably decreased
[7]
  cell cycle effect: G1 arrest
pRB [8]; cancer cells (U2OS) treated, control cells about 0.5
  proportion of phosphorylated-pRB/RB: about 0.3
pRB [8]; [20]
  decrease of proportion of phosphorylated-pRB/RB: about 20%
  phosphorylated-pRB: decreased
MMP-2
  decrease of expression level of MMP-2: not observed
cyclin-D1 [9]
  expression level of cyclin-D1: increased
[10]; lung, 5 weeks after tail vein injection, FIG. 8
  antimetastatic activity: powerful antimetastatic activity
[10]; vs control group, FIG. 8
  number of lung tumors: lower than that of the control group
[10]; vs control group, FIG. 8B
  lung tumor volumes: significantly low
HT1080 cells
  invasion: reduced
cyclin-B1 [11]
  expression level of cyclin-B1: increased
[12]
  concentration at which cancer cell growth is inhibited: ≥ 0.5%
pRB [13]
  degree of phosphorylation of pRB (immunohistochemistry): decreased
cyclin-D1 [14]
  expression level of cyclin-D1: decreased
cyclin-E1 [15]
  expression level of cyclin-E1: increased
[16]; after 100 μmol hydrogen peroxide 2 to 3 hours
  cell form (differentiation induction): neuron-like form
[16]; after hydrogen peroxide
  neurofilament protein (NF200): increase
p53 [17]; 48 hours, vs control, FIG. 10A
  expression level of p53: increased
p53 [17]; anti-phosphoserine-specific antibody
  phosphorylated-p53 protein: increased
cyclin-B1 [18]
  expression level of cyclin-B1: decreased
[19]
  tumor growth: effect of tumor growth inhibition was confirmed
Keap1
  expression level of Keap1: increase
MMP-3
  expression level of MMP-3: remarkably decreased

From US20160113888A1, “PHARMACEUTICAL COMPOSITION FOR TREATMENT OF CANCER” (NATIONAL INSTITUTE OF ADVANCED INDUSTRIAL SCIENCE AND …, priority 2013, published 2016)
